{"source": "patent US11331375B2", "about": "“Compositions and methods for regulating leukocyte adhesion” (University of Virginia Patent Foundation, priority 2015, dated 2022)", "key": {"HUVEC": {"test_system": "HUVEC", "test": "In vitro ATP release assay (luciferin:luciferase), HUVEC", "format": "cell-based, human", "method": "In vitro Human arterial and venous ECs were seeded in 24-well plates pre-coated with 0.2% gelatin and grown to confluency. On the day of experiment, the media was removed from each well and cells were carefully washed twice with warm serum free basal EC medium supplemented with 1% BSA. Cells were then incubated in 300 μL of fresh basal EC medium supplemented with 1% BSA for 30 minutes at 37° C. to allow degradation of extracellular ATP released due to mechanical stimulation during washes. Endogenous ecto-nucleotidases were inhibited by incubating EC monolayers with 300 μM ARL 67156 (Tocris) for 30 minutes at 37° C. Cells were then stimulated with recombinant human TNFα (R&D Systems). For dose response experiments, ECs were incubated with 0.1, 1, 5, 10, 50, or 100 ng/mL recombinant TNFα for 30 minutes at 37° C. For time-course experiments, ECs were stimulated with 10 ng/mL recombinant TNFα for different time points up to 1 hour. In experiments where pharmacological inhibitors were employed, ECs were incubated with antagonists in parallel with ARL 67156 for 30 minutes. To inhibit TNFR1, ECs were incubated with the peptide antagonist of the receptor WP9QY (10 μM; Anaspec). […] Cx hemichannels were inhibited with lanthanum (La^3+; 100 μM; Sigma) and Panx1 channels were blocked with carbenoxolone (CBX; 50 μM; Sigma) and the inhibitory peptide ^10panx1 (200 μM; Genscript). […] The role of caspase activation was assessed by inhibition with the pan-caspase blocker Q-VD-OPh (100 μM; Sigma). Following stimulation with TNFα or vehicle, 150 μL of the cell supernatant was collected and immediately placed into pre-chilled 1.5 mL Eppendorf tubes on ice. All samples were centrifuged at 10,000×g for 5 minutes and 50 μL of each sample was transferred to a white, opaque 96-well plate. Using a FluoStar Omega luminometer, 50 μL of luciferin:luciferase reagent (ATP bioluminescence assay kit HSII; Roche) was injected into each well and luminescence was recorded following a 5s orbital mix. ATP concentration in each sample was calculated from a standard curve for all experiments. Data are presented as a % change in ATP release from baseline (i.e. unstimulated cells) and expressed as mean±SEM (n=5 independent experiments with triplicate measurements)."}, "HAoEC": {"test_system": "HAoEC", "test": "In vitro ATP release assay, HAoEC", "format": "cell-based, human", "method": "(§1) In vitro Human arterial and venous ECs were seeded in 24-well plates pre-coated with 0.2% gelatin and grown to confluency. On the day of experiment, the media was removed from each well and cells were carefully washed twice with warm serum free basal EC medium supplemented with 1% BSA. Cells were then incubated in 300 μL of fresh basal EC medium supplemented with 1% BSA for 30 minutes at 37° C. to allow degradation of extracellular ATP released due to mechanical stimulation during washes. Endogenous ecto-nucleotidases were inhibited by incubating EC monolayers with 300 μM ARL 67156 (Tocris) for 30 minutes at 37° C. Cells were then stimulated with recombinant human TNFα (R&D Systems). For dose response experiments, ECs were incubated with 0.1, 1, 5, 10, 50, or 100 ng/mL recombinant TNFα for 30 minutes at 37° C. […] The role of caspase activation was assessed by inhibition with the pan-caspase blocker Q-VD-OPh (100 μM; Sigma). […] Using a FluoStar Omega luminometer, 50 μL of luciferin:luciferase reagent (ATP bioluminescence assay kit HSII; Roche) was injected into each well and luminescence was recorded following a 5s orbital mix. ATP concentration in each sample was calculated from a standard curve for all experiments. Data are presented as a % change in ATP release from baseline (i.e. unstimulated cells) and expressed as mean±SEM (n=5 independent experiments with triplicate measurements)."}, "HCoAEC": {"test_system": "HCoAEC", "test": "In vitro ATP release assay, HCoAEC", "format": "cell-based, human", "method": "as §1"}, "[1]": {"test_system": "isolated murine mesenteric venules", "test": "Ex vivo vascular perfusion ATP release assay, mesenteric venules", "format": "cell-based, mouse", "details": "lumenal perfusion", "method": "For isolated blood vessel experiments, 2nd order venules or arterioles were dissected from the mouse mesentery circulation and cannulated on glass micropipettes to access the vessel lumen. […] Vessels were then perfused with MOPS PSS containing 300 μM ARL 67156 +/− pharmacological inhibitors and incubated for an additional 20 minutes prior to perfusion with MOPS PSS containing recombinant murine TNFα (R&D Systems). Aliquots of the lumenal perfusate were collected every 5 minutes for a 25-minute period and the ATP concentration was quantified by bioluminescence as described above. Data are expressed as mean±SEM (n=4 independent experiments)."}, "Src Family Kinases (SFK) [2]": {"test_system": "Src Family Kinases (SFK)", "test": "Western blot of SFK activation (pY416SFK) in venous ECs", "format": "cell-based, human", "details": "HUVEC and HSaVEC; acute (5 minute) TNFα", "method": "(§2) Following stimulation with TNFα (in vitro: 10 ng/mL; ex vivo: 50 ng/mL), confluent endothelial cell monolayers or isolated mesenteric venules were homogenized in ice cold Triton extraction buffer (50 mM Tris-HCL, 150 mM NaCl , 5 mM EDTA, 1% deoxycholate, 1% NP-40 and 1% Triton-X100 in phosphate buffered saline and pH adjusted to 7.4) containing protease and phosphatase inhibitors. Cell/Tissue lysates were incubated with rotation at 4° C. for 20 minutes to solubilize proteins, followed by centrifugation for 5 minutes at 13,000× g to pellet cell debris. Protein concentration was quantified using the BCA method. 15-20 μg of total protein was subjected to SDS gel electrophoresis using 4-12% Bis-Tris gels (Invitrogen) and transferred to nitrocellulose membranes for immunoblotting. Membranes were blocked for 1 hr at room temperature with LiCOR blocking solution, then incubated overnight at 4° C. with primary antibodies against pY416SFKs, (BD Biosciences; 1:1000) pY198Panx1 (Alpha Diagnostic Intl (ADI); 1:1000) and GAPDH (Sigma; 1:10,000) or an antibody against the intracellular loop of Panx1 (Panx1-IL) (ADI; 1:1000) (normalization controls). Membranes were then washed and incubated with LiCOR secondary antibodies (1:10,000) and visualized and quantitated using LiCOR Odyssey. To inhibit SFK activity, EC monolayers were incubated with the SFK inhibitor PP2 (Tocris; 10 μM). […] To show specificity for the phosphorylated form of SFKs and Panx1, cell lysates were incubated with alkaline phosphatase for 1 hour at 37° C. Western blot images have been cropped for presentation. Uncropped Western blots can be found in FIGS. 12-13. Data are expressed as mean±SEM (n=3 independent experiments)."}, "Panx1 [3]": {"test_system": "Panx1", "test": "Western blot of Panx1 phosphorylation at Y198 in venous ECs", "format": "cell-based, human", "details": "HUVEC and HSaVECs; TNFα 10 ng/mL", "method": "as §2"}, "C57B1/6J mice": {"test_system": "C57B1/6J mice", "test": "Intravital microscopy of cremaster muscle for leukocyte adhesion and emigration", "format": "in vivo, mouse", "details": "topical TNFα on cremaster, after 120 minutes", "method": "Mice were prepared for intravital microscopy of the cremaster muscle as described previously^25. Briefly, mice were anesthetized with ketamine hydrochloride (150 mg/kg, IP) and xylazine (7.5 mg/kg, IP). The cremaster was isolated, laid over a viewing pedestal, superfused with bicarbonate-buffered saline. After 30 min equilibration, a venule with a wall shear rate (WSR) of ≥500/s, diameter between 20 μm and 40 μm, and the least number of adherent and emigrated leukocytes was chosen for further study. A 1 min baseline recording was made, after which superfusion was stopped, and 50 μl TNFα (1.7 ng/ml in 0.1% BSA) or vehicle control was added under a saran wrap cover every 30 min. 1 min recordings were made just prior to each addition, for 3 hrs. The TNFα was initially reconstituted in PBS at 3.4 ng/ml and 150 μl aliquots were frozen. An aliquot was mixed 1:1 with BBS containing 0.2% BSA at the time of the experiment. Leukocyte adhesion and emigration were determined by off-line analysis. Leukocytes were considered adherent if they stopped for at least 30 s (expressed as #/mm^2 vessel wall), and emigrated leukocytes were leukocytes identified in the interstitium (expressed as #cells/mm^2 tissue). Data are expressed as mean±SEM (n=6-7 independent animals/group)."}, "Src Family Kinases (SFK) [4]": {"test_system": "Src Family Kinases (SFK)", "test": "Western blot of SFK activation in isolated mesenteric venules", "format": "cell-based, mouse", "details": "mesenteric venules perfused with TNFα 50 ng/mL 30 minutes", "method": "(§3) Following stimulation with TNFα (in vitro: 10 ng/mL; ex vivo: 50 ng/mL), confluent endothelial cell monolayers or isolated mesenteric venules were homogenized in ice cold Triton extraction buffer (50 mM Tris-HCL, 150 mM NaCl , 5 mM EDTA, 1% deoxycholate, 1% NP-40 and 1% Triton-X100 in phosphate buffered saline and pH adjusted to 7.4) containing protease and phosphatase inhibitors. Cell/Tissue lysates were incubated with rotation at 4° C. for 20 minutes to solubilize proteins, followed by centrifugation for 5 minutes at 13,000× g to pellet cell debris. Protein concentration was quantified using the BCA method. 15-20 μg of total protein was subjected to SDS gel electrophoresis using 4-12% Bis-Tris gels (Invitrogen) and transferred to nitrocellulose membranes for immunoblotting. Membranes were blocked for 1 hr at room temperature with LiCOR blocking solution, then incubated overnight at 4° C. with primary antibodies against pY416SFKs, (BD Biosciences; 1:1000) pY198Panx1 (Alpha Diagnostic Intl (ADI); 1:1000) and GAPDH (Sigma; 1:10,000) or an antibody against the intracellular loop of Panx1 (Panx1-IL) (ADI; 1:1000) (normalization controls). Membranes were then washed and incubated with LiCOR secondary antibodies (1:10,000) and visualized and quantitated using LiCOR Odyssey. […] Data are expressed as mean±SEM (n=3 independent experiments)."}, "Panx1 [5]": {"test_system": "Panx1", "test": "Western blot of pY198Panx1 in isolated mesenteric venules", "format": "cell-based, mouse", "details": "mesenteric venules perfused with TNFα 50 ng/mL 30 minutes", "method": "as §3"}}}
{"substance": "TNFα", "values": [{"measurement": "TNFα dose with significant ATP release response", "setting": "HUVEC; EC ATP release, range tested 0.1-100 ng/mL", "value": "≥ 10", "unit": "ng/mL"}, {"measurement": "ATP release on cytokine stimulation", "setting": "HUVEC; HUVEC monolayers", "value": "significant increase"}, {"measurement": "TNFα concentration giving maximal accumulation of extracellular ATP", "setting": "HUVEC; cultured venous ECs", "value": 10, "unit": "ng/mL"}, {"measurement": "time to maximal accumulation of extracellular ATP", "setting": "HUVEC; cultured venous ECs, 10 ng/mL TNFα", "value": "approximately 10 minutes"}, {"measurement": "ATP release on cytokine stimulation", "setting": "HAoEC", "value": "failed to release ATP"}, {"measurement": "ATP release on cytokine stimulation", "setting": "HCoAEC", "value": "failed to release ATP"}, {"measurement": "ATP accumulation in the perfusate on cytokine perfusion", "setting": "[1]", "value": "time- and dose-dependent increase"}, {"measurement": "Y416 phosphorylation of SFK", "setting": "Src Family Kinases (SFK) [2]", "value": "significant increase"}, {"measurement": "Panx1 phosphorylation at Y198", "setting": "Panx1 [3]", "value": "increased phosphorylation at Y198"}, {"measurement": "increase of leukocyte adhesion", "setting": "C57B1/6J mice", "value": "~2.5", "unit": "fold"}, {"measurement": "increase of leukocyte emigration", "setting": "C57B1/6J mice", "value": "~3.5", "unit": "fold"}, {"measurement": "SFK activation", "setting": "Src Family Kinases (SFK) [4]", "value": "increasing SFK activation"}, {"measurement": "phosphorylation of Panx1", "setting": "Panx1 [5]", "value": "promoted phosphorylation of Panx1"}]}
